For series [1], the system named is Pseudomonas aeruginosa. The experiment in a line: Antivirulence activity against Pseudomonas aeruginosa clinical isolate 1121 assessed as reduction of pyocyanin production at 10 uM incubated for 24 hrs by optical density based analysis relative to control. Details: scale not given: the % may be the effect or the level left. Format: functional.
The subject of series [2] is Pseudomonas aeruginosa. The experiment in a line: Antivirulence activity against Pseudomonas aeruginosa clinical isolate FB assessed as reduction of pyocyanin production at 10 uM incubated for 24 hrs by optical density based analysis relative to control. The format is functional. Details: scale not given: the % may be the effect or the level left.
The test system of series [3] is Pseudomonas aeruginosa. The experiment in a line: Antibacterial activity against Pseudomonas aeruginosa PAO1 assessed as inhibition of biofilm formation incubated for 24 hrs by crystal violet staining analysis. The format is functional, organism-based.
Series [4] deals with Pseudomonas aeruginosa. Briefly: Synergistic antibacterial activity against Pseudomonas aeruginosa PAO1 assessed as reduction in bacterial viability at 10 uM incubated for 24 hrs in presence of tobramycin at 1/2 to 1/8 times of MIC. Format: functional, organism-based.
Series [5] can be described thus: Inhibition of quorum sensing system in Pseudomonas aeruginosa PAO1 transfected with rhlA-gfp reporter assessed as decrease in GFP fluorescence expression at 0.625 to 10 uM incubated for 16 hrs by microplate reader assay. Particulars: dose 0.625-10 µM.
A short description of series [6]: Inhibition of quorum sensing system in Pseudomonas aeruginosa PAO1 assessed as inhibition of pyocyanin production at 10 uM incubated for 24 hrs by optical density based analysis relative to control.
Series [7] concerns Pseudomonas aeruginosa. Briefly: Synergistic antibacterial activity against Pseudomonas aeruginosa clinical isolate FB assessed as reduction in bacterial viability at 10 uM incubated for 24 hrs in presence of ciprofloxacin at 1/2 to 1/8 times of MIC. Format: functional, organism-based.
The subject of series [8] is Pseudomonas aeruginosa. The experiment in a line: Synergistic antibacterial activity against Pseudomonas aeruginosa clinical isolate FB assessed as reduction in bacterial viability at 10 uM incubated for 24 hrs in presence of tobramycin at 1/2 to 1/8 times of MIC. Format: functional, organism-based.
Series [9] concerns Pseudomonas aeruginosa. Briefly: Antibacterial activity against Pseudomonas aeruginosa PAO1 assessed as inhibition of biofilm formation at 50 uM incubated for 24 hrs by crystal violet staining analysis relative to control. Format: functional. Details: scale not given: the % may be the effect or the level left.
Series [10] deals with Pseudomonas aeruginosa. Briefly: Synergistic antibacterial activity against Pseudomonas aeruginosa clinical isolate 1121 assessed as reduction in bacterial viability at 10 uM incubated for 24 hrs in presence of ciprofloxacin at 1/2 to 1/8 times of MIC. The format is functional, organism-based.
Series [11] can be described thus: Inhibition of quorum sensing system in Pseudomonas aeruginosa PAO1 assessed as inhibition of rhamnolipid production at 0.625 to 20 uM incubated for 24 hrs by optical density based analysis. Particulars: dose 0.625-20 µM.
Series [12] can be described thus: Inhibition of quorum sensing system in Pseudomonas aeruginosa PAO1 assessed as inhibition of pyocyanin production incubated for 24 hrs by optical density based analysis.
Series [13] concerns Pseudomonas aeruginosa. Briefly: Synergistic antibacterial activity against Pseudomonas aeruginosa PAO1 infected in Caenorhabditis elegans assessed as worm survival rate at 10 uM incubated for 72 hrs in presence of ciprofloxacin by bright-field microscopy relative to control. Format: functional.
The test system of series [14] is Pseudomonas aeruginosa. The experiment in a line: Antibacterial activity against Pseudomonas aeruginosa PAO1 infected in Caenorhabditis elegans assessed as increase in worm survival by measuring survival time at 50 uM by bright-field microscopy. Format: functional.
For series [15], the system named is Pseudomonas aeruginosa. The experiment in a line: Synergistic antibacterial activity against Pseudomonas aeruginosa PAO1 infected in Caenorhabditis elegans assessed as worm survival rate at 10 uM incubated for 72 hrs in presence of tobramycin by bright-field microscopy relative to control. The format is functional.
For series [16], the system named is Pseudomonas aeruginosa. The experiment in a line: Synergistic antibacterial activity against Pseudomonas aeruginosa clinical isolate 1167 assessed as reduction in bacterial viability at 10 uM incubated for 24 hrs in presence of tobramycin at 1/2 to 1/8 times of MIC. Format: functional, organism-based.
Series [17] is described as follows: Inhibition of quorum sensing system in Pseudomonas aeruginosa PAO1 transfected with lasB-gfp reporter assessed as decrease in GFP fluorescence expression at 0.625 to 10 uM incubated for 16 hrs by microplate reader assay. Particulars: dose 0.625-10 µM.
For series [18], the system named is Pseudomonas aeruginosa. Briefly: Synergistic antibacterial activity against Pseudomonas aeruginosa clinical isolate 1121 assessed as reduction in bacterial viability at 10 uM incubated for 24 hrs in presence of tobramycin at 1/2 to 1/8 times of MIC. The format is functional, organism-based.
Series [19] in a line: Binding affinity to recombinant PqsR LBD (94 to 332 residues) (unknown origin) expressed in Escherichia coli BL21 (DE3) assessed as dissociation constant by isothermal titration calorimetry. For orientation: In ITC the heat of successive injections is recorded.
Series [20] relates to Pseudomonas aeruginosa. Briefly: Synergistic antibacterial activity against Pseudomonas aeruginosa clinical isolate 1129 assessed as reduction in bacterial viability at 10 uM incubated for 24 hrs in presence of ciprofloxacin at 1/2 to 1/8 times of MIC. Format: functional, organism-based.
Series [21] can be described thus: Metal chelating activity assessed as compound-Fe3+ complex formation by measuring fluorescence signal by fluorescence spectrophotometry.
Series [22] can be described thus: Toxicity in Caenorhabditis elegans assessed as effect on survival at 100 uM incubated for 60 hrs by bright-field microscopy.
Series [23] deals with Pseudomonas aeruginosa. The experiment in a line: Antivirulence activity against Pseudomonas aeruginosa PA14 assessed as reduction of pyocyanin production at 10 uM incubated for 24 hrs by optical density based analysis relative to control. Format: functional. Details: scale not given: the % may be the effect or the level left.
Series [24] is described as follows: Inhibition of quorum sensing system in Pseudomonas aeruginosa PAO1 transfected with GFP reporter assessed as decrease in GFP fluorescence expression at 1.25 to 10 uM incubated for 16 hrs by microplate reader assay. Particulars: dose 1.25-10 µM.
In series [25] the test system is Vero. The experiment in a line: Cytotoxicity against African green monkey Vero cells at 1.56 to 50 uM incubated for 24 hrs by MTT assay. Format: toxicity, cell-based. Particulars: chlorocebus sabaeus, dose 1.56-50 µM.
The subject of series [26] is Pseudomonas aeruginosa. Briefly: Synergistic antibacterial activity against Pseudomonas aeruginosa clinical isolate 1129 assessed as reduction in bacterial viability at 10 uM incubated for 24 hrs in presence of tobramycin at 1/2 to 1/8 times of MIC. The format is functional, organism-based.
Series [27] deals with Pseudomonas aeruginosa. The experiment in a line: Synergistic antibacterial activity against Pseudomonas aeruginosa PAO1 infected in Caenorhabditis elegans assessed as worm survival rate at 50 uM incubated for 72 hrs in presence of ciprofloxacin by bright-field microscopy relative to control. The format is functional.
In series [28] the test system is Pseudomonas aeruginosa. The experiment in a line: Anti-motility activity against Pseudomonas aeruginosa PAO1 assessed as reduction in swimming incubated for 16 hrs by crystal violet staining analysis. The format is functional, organism-based.
For series [29], the system named is Pseudomonas aeruginosa. Briefly: Synergistic antibacterial activity against Pseudomonas aeruginosa PAO1 infected in Caenorhabditis elegans assessed as worm survival rate at 50 uM incubated for 72 hrs in presence of tobramycin by bright-field microscopy relative to control. Format: functional.
Series [30] deals with Vero. Briefly: Cytotoxicity against African green monkey Vero cells at 100 uM incubated for 24 hrs by MTT assay. The format is toxicity, cell-based. Particulars: chlorocebus sabaeus.
Series [31] is described as follows: Inhibition of quorum sensing system in Pseudomonas aeruginosa PAO1 transfected with pqsA-gfp reporter assessed as decrease in GFP fluorescence expression incubated for 16 hrs by microplate reader assay.
Series [32] in a line: Inhibition of quorum sensing system in Pseudomonas aeruginosa PAO1 assessed as inhibition of pyocyanin production at 0.625 uM incubated for 24 hrs by optical density based analysis relative to control.
The subject of series [33] is Pseudomonas aeruginosa. Briefly: Inhibition of iron homeostasis in Pseudomonas aeruginosa PAO1 assessed as decrease in pyoverdine production at 5 to 20 uM incubated for 24 hrs by fluorescence based microplate reader analysis. The format is functional, organism-based. Particulars: dose 5-20 µM.
The subject of series [34] is Pseudomonas aeruginosa. The experiment in a line: Inhibition of iron homeostasis in Pseudomonas aeruginosa PAO1 assessed as decrease in pyochelin production at 1.25 to 20 uM incubated for 24 hrs by fluorescence based microplate reader analysis. Format: functional, organism-based. Particulars: dose 1.25-20 µM.
The test system of series [35] is Pseudomonas aeruginosa. Briefly: Anti-motility activity against Pseudomonas aeruginosa PAO1 assessed as reduction in twitching incubated for 16 hrs by crystal violet staining analysis. Format: functional, organism-based.
Series [36] has as its system Pseudomonas aeruginosa. The experiment in a line: Synergistic antibacterial activity against Pseudomonas aeruginosa PAO1 assessed as reduction in bacterial viability at 10 uM incubated for 24 hrs in presence of ciprofloxacin at 1/2 to 1/8 times of MIC. The format is functional, organism-based.
The test system of series [37] is Pseudomonas aeruginosa. The experiment in a line: Antibacterial activity against Pseudomonas aeruginosa PAO1 infected in Caenorhabditis elegans assessed as worm survival rate at 0.125 ug/ml incubated for 72 hrs by bright-field microscopy relative to control. The format is functional.
The test system of series [38] is Pseudomonas aeruginosa. Briefly: Synergistic antibacterial activity against Pseudomonas aeruginosa clinical isolate 1167 assessed as reduction in bacterial viability at 10 uM incubated for 24 hrs in presence of ciprofloxacin at 1/2 to 1/8 times of MIC. The format is functional, organism-based.
Series [39] deals with Pseudomonas aeruginosa. The experiment in a line: Antibacterial activity against Pseudomonas aeruginosa PAO1 infected in Caenorhabditis elegans assessed as increase in worm survival by measuring survival time at 10 uM by bright-field microscopy. The format is functional.
A short description of series [40]: Inhibition of quorum sensing system in Pseudomonas aeruginosa PAO1 assessed as inhibition of elastase production at 10 uM incubated for 24 hrs by elastin-congo red dye based optical density based analysis relative to control.
The subject of series [41] is Pseudomonas aeruginosa. Briefly: Anti-motility activity against Pseudomonas aeruginosa PAO1 assessed as reduction in swarming incubated for 16 hrs by crystal violet staining analysis. The format is functional, organism-based.
The subject of series [42] is Pseudomonas aeruginosa. Briefly: Synergistic antibacterial activity against Pseudomonas aeruginosa PAO1 infected in Caenorhabditis elegans assessed as worm survival rate at 2.5 ug/ml incubated for 72 hrs in presence of compound 16e by bright-field microscopy relative to control. The format is functional.
Series [43] concerns Pseudomonas aeruginosa. Briefly: Antibacterial activity against Pseudomonas aeruginosa PAO1 infected in Caenorhabditis elegans assessed as worm survival rate at 2.5 ug/ml incubated for 60 hrs by bright-field microscopy relative to control. Format: functional.

The source made the active and inactive calls. The rule behind the calls is not given here.

The record followed here is ChEMBL document CHEMBL5344424, “3-Hydroxypyridin-4(1H)-one Derivatives as pqs Quorum Sensing Inhibitors Attenuate Virulence and Reduce Antibiotic Resistance in Pseudomonas aeruginosa” (J Med Chem, 2023).

As usually defined, the inhibition is how much of the control response was suppressed. Usually IC50 stands for the concentration at which inhibition is half-maximal. As usually defined, the Kd is the equilibrium constant for the complex coming apart.

For `Cc1cc(=O)c(O)c(CNCc2cn(-c3ccc(Oc4ccccc4)cc3)nn2)n1C`, the Activity in the series with Pseudomonas aeruginosa [1] was 41.1%; in the series with Pseudomonas aeruginosa [2] it was 32.2%; with Pseudomonas aeruginosa [3], “Dose-Dependent Effect”; with Pseudomonas aeruginosa [9], about 50%; in series [21] it was 22.4; in series [22] it was “Non-Toxic”. The Activity in the series on Pseudomonas aeruginosa [23] is 50.9%; in the series with Vero [25], “Non-Toxic”; in the series on Pseudomonas aeruginosa [28], “Dose-Dependent Effect”; with Vero [30], “Toxic”; with Pseudomonas aeruginosa [35], “Dose-Dependent Effect”; with Pseudomonas aeruginosa [41] it was “Dose-Dependent Effect”. Also, the outcome in the series on Pseudomonas aeruginosa [4], in the series with Pseudomonas aeruginosa [7], in the series on Pseudomonas aeruginosa [8], in the series with Pseudomonas aeruginosa [10], in the series on Pseudomonas aeruginosa [18] and in the series on Pseudomonas aeruginosa [20] was Active. The result in the series with Pseudomonas aeruginosa [26] and with Pseudomonas aeruginosa [36] was Active. Also, the inhibition entry (in series [5]; in [11]; in series [24]; with Pseudomonas aeruginosa [33]; in the series on Pseudomonas aeruginosa [34]) was “inactive” throughout. The inhibition in series [6] was found to be 69.9%; in series [32], 30%; in series [40], 26.7%. In addition, the IC50 in [12] amounted to 2.7 µM; in series [31], 3.7 µM. Besides, the survival at 10 µM in the series with Pseudomonas aeruginosa [13] is 35.7%; in the series with Pseudomonas aeruginosa [15], 46.7%. Besides, the results for the Survival with Pseudomonas aeruginosa [14] and with Pseudomonas aeruginosa [39] were 36 h and 30 h, respectively. For the same molecule, the result in the series on Pseudomonas aeruginosa [16] and in the series with Pseudomonas aeruginosa [38] was inactive. Also, the inhibition entry in [17] was “Active”. In addition, the Kd in series [19] was determined as 1.1 µM. The figures for the survival at 50 µM with Pseudomonas aeruginosa [27] and with Pseudomonas aeruginosa [29] were 87.1% and 82.3%, respectively. The survival at 0.125 µg/mL in the series with Pseudomonas aeruginosa [37] came out at 13.1%.
Turning to `NC[C@H]1O[C@H](O[C@H]2[C@H](O)[C@@H](O[C@H]3O[C@H](CO)[C@@H](O)[C@H](N)[C@H]3O)[C@H](N)C[C@@H]2N)[C@H](N)C[C@@H]1O` [TOBRAMYCIN], the survival at 2.5 µg/mL was determined as 46.7% in the series on Pseudomonas aeruginosa [42] and 18.1% with Pseudomonas aeruginosa [43].
